Laboratory results taken from patent publication US7745446B2, “Pyrazolo[1,5-c]pyrimidines” (Bayer Schering Pharma Aktiengesellschaft, priority 2004, dated 2010).

Assays:
[1] = target: T1, full-length Akt1 (active) (Homo sapiens, UniProt P31749); assay: Biochemical Akt1 assay (full-length Akt1 active, flashplate, Crosstide); details: 100 nM ATP, Crosstide substrate; read-out: Akt1 inhibition (full-length Akt1, active): IC50
T1 construct: recombinant full-length human Akt1, containing N-terminal His6 tag; His6 (N); GST (N); purchased Upstate, UK #14-276; host or cells: baculovirus infected Sf21 insect cells
Source text: For the biochemical Akt1 assay recombinant full-length human Akt1, containing N-terminal His6 tag is cloned and expressed in baculovirus infected Sf21 insect cells. Akt1 is activated with GST-MAPKAP-K2 and PDK1, and repurified on Ni2+/NTA-agrose and glutathioneagarose (Upstate, UK; #14-276).
In order to study the inhibition of Akt1 (full-length version) according to the invention, a flashplate-based assay has been developed.
The full-length Akt1 assay is a biochemical assay using Akt1 N-terminally fused to GST and co-expressed with PDKI in insect cells. The Akt1 assay is run in 96 well plates by incubating 500 ng/well GST-Akt1, 1 μM Crosstide (N-terminally biotinylated synthetic peptide (KGSGSGRPRTSSFAEG) Upstate, #12-385) as substrate, 10 μl of test compound (test compounds were dissolved as 10 mM solutions in dimethylsulfoxide (DMSO) and subsequently diluted) and 100 nM ATP (including ^33P-ATP) in 100 μl of reaction buffer (50 mM HEPES, pH7,5; 3 mM MgCl2; 3 mM MnCl2; 3 μM Na-Orthovanadat; 1 mM DTT; 1 μg/ml PEG8000) for 60 minutes at 30° C. in 96 well microtiter plates. The reactions are terminated by adding 100 μl stopping buffer (5M NaCl, 35 mM EDTA pH 8.0) for 5 minutes. 190μl of the reaction mixture are transferred into streptavidin-coated Flashplates (Perkin Elmer, #SMP-103) and incubated for further 30 minutes at room temperature. The plates are washed 3 times by using washing buffer (0.9% NaCl). Relying on the incorporation of ^33P into the peptide substrate crosstide, the detection is based on the specific binding of the biotinylated peptide to the streptavidin-coated surface of scintillator-coated flash plates (NEN, USA; #SMP-103). This phosphorylation is measured by counting the plate for 60 sec. using a plate reader (Wallac Microbeta; Perkin Elmer, USA).

MCF7 cells = assay: Cellular proliferation/cytotoxicity assay (Alamar Blue), MCF7; details: Homo sapiens, MCF7, 48 h, read-out: Anti-proliferative/cytotoxic activity: IC50 MCF7
Method: The anti-proliferative activity of the compounds as described herein, is evaluated using MCF7 and MDA-MB-468 (ATCC HTB-22 and HTB-132) cell lines and the Alamar Blue (Resazurin) cell viability assay (O'Brien et al. Eur J Biochem 267, 5421-5426, 2000). Resazurin is reduced to the fluorescent resorufin by cellular dehydrogenase activity, correlating with viable, proliferating cells. Test compounds are dissolved as 10 mM solutions in DMSO and subsequently diluted. MCF7 or MDA-MB-434 cells were seeded into 96 well flat bottom plates at a density of 10000 cells/well (MCF7) or 5000 cells/well (MDA-MB-468) in a volume of 200 μl/well. 24 hours after seeding, 1 μl each of the compound dilutions are added into each well of the 96 well plates. Each compound dilution is tested as at least as duplicates. Wells containing untreated control cells were filled with 200 μl DMEM containing 0.5% v:v DMSO. The cells are then incubated with the substances for 48 hours at 37° C. in a humidified atmosphere containing 5% carbon dioxide. To determine cell viability, 20 μl of a Resazurin solution (Sigma; 90 mg/l) are added. After 4 hours incubation at 37° C. the fluorescence is measured at an extinction of 544 nm and an emission of 590 nm (Wallac Victor2; Perkin Elmer, USA). For the calculation of the cell viability the emission value from untreated cells is set as 100% viability and the emission rates of treated cells are set in relation to the values of untreated cells. Viabilities are expressed as % values. The corresponding IC50 values of the compounds for cytotoxic activity are determined from the concentration-effect curves by means of non-linear regression. The analysis of the data is performed using a biostatistical program (GraphPad Prism, USA).

GST-ΔPH-Akt1 = target: T2, GST-ΔPH-Akt1 (Homo sapiens, UniProt P31749); assay: Biochemical ΔPH Akt1 assay (flashplate, 33P incorporation into histone 2B); details: 100 nM ATP, histone 2B substrate; read-out: ΔPHAkt1 inhibition: IC50
T2 construct: named GST-deltaPH-Akt1; 107-480aa; cloned in the pAcGl vector; GST (N); made in house; host or cells: SF9 insect cells (baculovirus vector pAcG1), co-expressed with PDK1
Summary of the method: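 The enzyme was GST-fused human Akt1 lacking the PH domain (aa 107–480), co-expressed with PDK1 in Sf9 cells, at 100 ng/well, with 100 ng/well histone 2B substrate and 100 nM ATP including 33P-ATP. 33P incorporation was counted on scintillant-coated flashplates.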

MDA-MB-468 cells = assay: Cellular proliferation/cytotoxicity assay (Alamar Blue), MDA-MB-468; details: Homo sapiens, MDA-MB-468, 48 h, read-out: Anti-proliferative/cytotoxic activity: IC50 MDA468

T2 sequence (P31749 107-480, stated change not applied): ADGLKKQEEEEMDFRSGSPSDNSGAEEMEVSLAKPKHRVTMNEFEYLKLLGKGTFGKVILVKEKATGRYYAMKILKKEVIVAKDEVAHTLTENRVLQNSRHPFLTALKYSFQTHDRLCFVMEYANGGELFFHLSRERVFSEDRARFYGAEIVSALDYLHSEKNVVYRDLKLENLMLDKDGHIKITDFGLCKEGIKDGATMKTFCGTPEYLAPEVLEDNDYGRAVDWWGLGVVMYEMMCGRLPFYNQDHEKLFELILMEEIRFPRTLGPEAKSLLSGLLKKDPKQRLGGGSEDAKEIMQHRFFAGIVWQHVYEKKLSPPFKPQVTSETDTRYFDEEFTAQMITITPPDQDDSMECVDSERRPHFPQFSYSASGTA
T1 sequence (P31749 whole entry): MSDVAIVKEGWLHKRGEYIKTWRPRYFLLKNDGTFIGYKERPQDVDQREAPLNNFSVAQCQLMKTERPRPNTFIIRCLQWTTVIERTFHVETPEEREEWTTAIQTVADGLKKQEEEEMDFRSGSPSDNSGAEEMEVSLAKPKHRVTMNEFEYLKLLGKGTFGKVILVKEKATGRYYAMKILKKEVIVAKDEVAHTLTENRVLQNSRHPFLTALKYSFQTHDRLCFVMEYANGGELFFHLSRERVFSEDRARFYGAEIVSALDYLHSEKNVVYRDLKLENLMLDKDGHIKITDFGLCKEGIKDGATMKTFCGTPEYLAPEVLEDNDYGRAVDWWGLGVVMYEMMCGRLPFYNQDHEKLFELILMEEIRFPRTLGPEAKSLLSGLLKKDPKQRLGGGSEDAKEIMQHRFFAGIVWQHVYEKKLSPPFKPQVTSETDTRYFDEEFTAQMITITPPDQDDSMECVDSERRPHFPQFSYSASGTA

Compound	IC50 [1] [µM]	IC50 (MCF7 cells) [µM]	IC50 (GST-ΔPH-Akt1) [µM]	IC50 (MDA-MB-468 cells) [µM]
O=C(Nc1cccc(Nc2nc(-c3cccc4c3oc3ccccc34)cc3ccnn23)c1)c1ccc2c(c1)CCNC2 [Example 63, 1,2,3,4-Tetrahydro-isoquinoline-6-carboxylic acid [3-(5-dibenzofuran-4-yl-pyrazolo[1,5-c]pyrimidin-7-ylamino)-phenyl]-amide]	≤ 4.03	≤ 16.9	≤ 1.75	≤ 13.6
NCCCC(=O)Nc1ccc(Nc2nc(-c3cccc4c3oc3ccccc34)cc3ccnn23)cc1 [Example 24, 4-Amino-N-[4-(5-dibenzofuran-4-yl-pyrazolo[1,5-c]pyrimidin-7-ylamino)-phenyl]-butyramide]	≤ 4.03	≤ 16.9	≤ 1.75	≤ 13.6
COc1cccc(-c2ccc(-c3cc4c(Br)cnn4c(Nc4ccc(NC(=O)c5ccc(CN)cc5)cc4)n3)cc2)c1 [Example 87, 4-Aminomethyl-N-{4-[3-bromo-5-(3′-methoxy-biphenyl-4-yl)-pyrazolo[1,5-c]pyrimidin-7-ylamino]-phenyl}-benzamide]	≤ 4.03	≤ 16.9	≤ 1.75	≤ 13.6
COc1cccc(-c2ccc(-c3cc4ccnn4c(Nc4ccc(NC(=O)c5ccc(CN)cc5)cc4)n3)cc2)c1 [Example 59, 4-Aminomethyl-N-{4-[5-(3′-methoxy-biphenyl-4-yl)-pyrazolo[1,5-c]pyrimidin-7-ylamino]-phenyl}-benzamide]	≤ 4.03	≤ 16.9	≤ 1.75	≤ 13.6
